Results reported in patent US20210214364A1, “sGC STIMULATORS” (Cyclerion Therapeutics, Inc., priority 2013, published 2021).
Values belong to the compound of their own block, whether it stands above or below them.

Key:
[1] = tested on: obese mice; details: cited from earlier work
[2] = tested on: lambs with acute pulmonary hypertension (U-46619); details: cited from earlier work; for effect on mean arterial pressure / pulmonary vasodilation / transpulmonary cGMP release / systemic arterial oxygenation: awake lambs; for effect on mean arterial pressure / pulmonary vasodilation / transpulmonary cGMP release: U-46619 infusion
[3] = tested on: Guinea pig tracheal smooth muscle (GPTSM); details: guinea pig tracheal strips, sub-maximal EFS; 95% Cl 0.78-0.94; read-out: IC50, inhibition of baseline EFS-induced contraction; cited from earlier work
[4] = tested on: patients with BMD; details: single oral dose of 20 mg, double-blind randomized placebo-controlled crossover trial; cited from earlier work
[5] = tested on: NO-deficient rats; details: cited from earlier work
[6] = target: T1, soluble guanylate cyclase (sGC) endogenously expressed in HEK293 cells (Homo sapiens, UniProt Q02108+Q02153); experiment: sGC-HEK-cGMP assay with LC/MS detection (whole cell); type: cell-based; details: 10 μM DETA-NONOate, 20 min, concentration eliciting 50% of high control response (30 μM Compound Y), read-out: sGC_HEK_LC MS EC50 Abs
T1 construct: endogenously expressing soluble guanylate cyclase (sGC); endogenous in cells; host or cells: HEK293
T1 sequence (Q02153 1-619): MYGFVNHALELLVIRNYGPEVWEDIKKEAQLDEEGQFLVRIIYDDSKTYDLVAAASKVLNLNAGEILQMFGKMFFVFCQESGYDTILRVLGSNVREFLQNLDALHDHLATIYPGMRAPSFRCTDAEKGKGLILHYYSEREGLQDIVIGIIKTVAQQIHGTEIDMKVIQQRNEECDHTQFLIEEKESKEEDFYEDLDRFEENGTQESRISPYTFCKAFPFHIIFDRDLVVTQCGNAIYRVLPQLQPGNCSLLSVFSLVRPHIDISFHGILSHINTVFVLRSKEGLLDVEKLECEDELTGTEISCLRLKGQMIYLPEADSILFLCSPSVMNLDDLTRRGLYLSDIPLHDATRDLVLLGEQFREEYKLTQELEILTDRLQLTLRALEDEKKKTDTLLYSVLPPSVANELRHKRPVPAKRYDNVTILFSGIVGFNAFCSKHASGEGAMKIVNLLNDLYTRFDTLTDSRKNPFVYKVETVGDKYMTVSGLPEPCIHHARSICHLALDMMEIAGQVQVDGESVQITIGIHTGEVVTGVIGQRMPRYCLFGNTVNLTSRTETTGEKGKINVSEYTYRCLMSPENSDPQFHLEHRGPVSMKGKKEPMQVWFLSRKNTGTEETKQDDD
T1 sequence (Q02108 1-690): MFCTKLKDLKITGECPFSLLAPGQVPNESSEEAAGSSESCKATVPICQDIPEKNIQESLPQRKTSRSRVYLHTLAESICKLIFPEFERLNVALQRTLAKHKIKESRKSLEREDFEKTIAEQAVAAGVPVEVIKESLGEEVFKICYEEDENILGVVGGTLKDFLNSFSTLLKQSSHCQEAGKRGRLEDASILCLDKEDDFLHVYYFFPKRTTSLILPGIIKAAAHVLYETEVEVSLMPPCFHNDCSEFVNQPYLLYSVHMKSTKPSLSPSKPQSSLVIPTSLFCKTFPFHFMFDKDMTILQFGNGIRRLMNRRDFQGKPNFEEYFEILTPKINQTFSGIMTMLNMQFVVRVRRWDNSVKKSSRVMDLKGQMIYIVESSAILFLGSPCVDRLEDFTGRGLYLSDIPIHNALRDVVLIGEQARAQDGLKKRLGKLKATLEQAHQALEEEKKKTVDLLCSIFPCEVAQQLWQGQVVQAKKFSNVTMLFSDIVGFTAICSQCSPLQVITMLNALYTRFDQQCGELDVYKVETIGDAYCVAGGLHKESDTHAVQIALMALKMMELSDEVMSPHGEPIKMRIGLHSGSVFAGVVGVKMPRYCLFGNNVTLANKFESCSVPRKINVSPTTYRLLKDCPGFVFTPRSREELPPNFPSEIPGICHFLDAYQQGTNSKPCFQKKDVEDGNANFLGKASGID
Experimental: Example 2: Biological Activity Measurement by the sGC-HEK-cGMP Assay, with LC/MS Detection
Human embryonic kidney cells (HEK293), endogenously expressing soluble guanylate cyclase (sGC), were used to evaluate the activity of test compounds. Compounds stimulating the sGC enzyme should cause an increase in the intracellular concentration of cGMP. HEK 293 cells were seeded in Dulbecco's Modification of Eagle's Medium supplemented with fetal bovine serum (10% final) and penicillin (100 U/mL)/streptomycin (100 μg/mL) in a 50 μL volume at a density of 1.5×10^4 cells/well in a poly-D-lysine coated 384 well flat bottom plate. Cells were incubated overnight at 37° C. in a humidified chamber with 5% CO2. Medium was aspirated and cells were washed with 1× Hank's Buffered Saline Salt Solution (50 μL). Cells were then incubated for 15 minutes at 37° C. with 50 μL of a 0.5 mM 3-isobutyl-1-methylxanthine (IBMX) solution. Test article and Diethylenetriamine NONOate (DETA-NONOate) solutions (x […] concentration for test article solution and 10 μM concentration for DETA-NONOate solution; wherein x is one of the following concentrations);
were then added to the assay mixture and the resulting mixture incubated at 37° C. for 20 minutes. After the 20 minute incubation, the assay mixture was aspirated and 10% acetic acid containing 150 ng/mL+3-cGMP (internal standard for LCMS) (50 μL) was added to the cells. The plate was incubated at 4° C. for 30 minutes in the acetic acid solution to stop the reaction and lyse the cells. The plates were then centrifuged at 1,000 g for 3 minutes at 4° C. and the supernatant transferred to a clean reaction plate for LCMS analysis.
cGMP concentrations were determined from each sample using the LCMS conditions below (Table 2) and calculated standard curve. The standard curve was prepared in 10% acetic acid with 150 ng/mL+3cGMP (isotopically labelled cGMP with a weight 3 units higher than wild type) with the following final concentrations of cGMP in ng/mL: 1, 5, 10, 50, 100, 250, 500, 1000, 2000.
Data were normalized to a high control using the following equation: 100*(Sample−Low Control)/(High Control−Low Control), where the low control is the average of 16 samples treated with 1% DMSO, and the high control is the average of 16 samples treated with 30 μM of Compound Y depicted below. Data were fit using a 4-parameter fit (log(agonist) vs. response variable slope) using GraphPad Prism Software v.5. n=2 for all compounds. The Absolute EC50 was interpolated from the curve fit and is defined as the concentration at which a given compound elicits 50% of the high control response. Compounds failing to elicit a minimum response of 50% are reported as >30 μM. For compounds run in duplicate or n higher than 2, the result herein given is the geometric mean of the several results obtained.

EC50 [6]: 101 to 1000 nM
Compound: COc1cc(-c2nnc3c(n2)NC(=O)C3(C)C)nn1Cc1ccccc1F [Compound I-16]

EC50 [6]: ≥ 1000 nM
Compound: CC1(C(N)=O)C(=O)Nc2nc(-c3nn(Cc4ccccc4F)c(=O)[nH]3)nc(N)c21 (centres unmarked) [Compound I-10]

EC50 [6]: ≥ 1000 nM
Compound: COc1cc(-c2ncc(F)c(N(C)C)n2)nn1Cc1ccccc1F [Compound I-12]

EC50 [6]: ≥ 1000 nM
Compound: COc1cc(-c2ncc(F)c(NCCS(N)(=O)=O)n2)nn1Cc1ccccc1F [Compound I-69]

EC50 [6]: ≥ 1000 nM
Compound: COc1cc(-c2ncc(F)c(=O)[nH]2)nn1Cc1ccccc1F [Compound I-5]

EC50 [6]: ≥ 1000 nM
Compound: O=c1[nH]c(-c2cc(OC(F)F)n(Cc3ccccc3F)n2)ncc1F [Compound I-4]

EC50 [6]: ≥ 1000 nM
Compound: COc1cc(-c2ncc(F)c(NCc3cc(=O)[nH]o3)n2)nn1Cc1ccccc1F [Compound I-19]

EC50 [6]: ≥ 1000 nM
Compound: COc1cc(-c2ncc(F)c(NCC(N)=O)n2)nn1Cc1ccccc1F [Compound I-11]

EC50 [6]: 101 to 1000 nM
Compound: COc1cc(-c2ncc(F)c(NCC(O)(C(N)=O)C(F)(F)F)n2)nn1Cc1ccccc1F (centres unmarked) [Compound I-20]

EC50 [6]: 101 to 1000 nM
Compound: COc1cc(-c2ncc(F)c(N(C)CC3(C(=O)O)CCCC3)n2)nn1Cc1ccccc1F [Compound I-66]

EC50 [6]: ≥ 1000 nM
Compound: Fc1cnc(-c2cc(OC(F)F)n(Cc3cccc(F)c3F)n2)nc1 [Compound I-59]

The next lines start with the compound.

Compound: O=C(O)CCCCN(CCc1cc(F)ccc1OCc1ccc(-c2ccc(C(F)(F)F)cc2)cc1)Cc1ccc(C(=O)O)cc1 [BAY 60-2770]
effect on overactive bladder [1]: ameliorates overactive bladder in obese mice

Compound: O=C(O)CCCCN(CCc1ccccc1OCc1ccc(CCc2ccccc2)cc1)Cc1ccc(C(=O)O)cc1 [BAY 58-2667]
pulmonary vasodilation and transpulmonary cGMP release after treatment with ODQ ([2]; inhaled microparticles, after intravenous ODQ): greatly enhanced
effect on mean arterial pressure ([2]; inhaled microparticles): without significant effect on mean arterial pressure
pulmonary vasodilation ([2]; inhaled microparticles): dose dependent pulmonary vasodilation
transpulmonary cGMP release ([2]; inhaled microparticles): increased transpulmonary cGMP release
systemic arterial oxygenation ([2]; inhaled microparticles): increased systemic arterial oxygenation

Compound: CC(C)[N+]1(C)[C@@H]2CC[C@H]1C[C@@H](OC(=O)C(CO)c1ccccc1)C2 (some centres unmarked) [Ipratropium bromide]
IC50 [3]: 0.86 nM

Compound: Nc1nc(-c2nn(Cc3ccccc3F)c3ncccc23)nc(N)c1N1CCOCC1 [BAY 41-8543]
magnitude and duration of pulmonary vasodilation induced by iNO ([2]; after inhaling microparticles): augmented
effect on mean arterial pressure ([2]; inhaled microparticles): without significant effect on mean arterial pressure
pulmonary vasodilation ([2]; inhaled microparticles): dose dependent pulmonary vasodilation
transpulmonary cGMP release ([2]; inhaled microparticles): increased transpulmonary cGMP release
systemic arterial oxygenation ([2]; inhaled microparticles): increased systemic arterial oxygenation

Compound: CN1CC(=O)N2[C@H](c3ccc4c(c3)OCO4)c3[nH]c4ccccc4c3C[C@@H]2C1=O [tadalafil]
normal blood flow regulation [4]: restored in eight of nine patients

Compound: Nc1nc(-c2nn(Cc3ccccc3F)c3ncccc23)ncc1C1CC1 [BAY 41-2272]
effect on mean arterial pressure ([2]; inhaled microparticles): without significant effect on mean arterial pressure
pulmonary vasodilation ([2]; inhaled microparticles): dose dependent pulmonary vasodilation
transpulmonary cGMP release ([2]; inhaled microparticles): increased transpulmonary cGMP release

Compound: Nc1nc(-c2nn(Cc3ccccc3F)c3ncccc23)ncc1C1CC1 [BAY-2272]
effect on bladder dysfunction [5]: protective effects

Compound: COc1nc(-c2nc(N)c3c(n2)NC(=O)C3(C)C(N)=O)nn1Cc1ccccc1F (centres unmarked) [Compound I-17]
EC50 [6]: ≥ 1000 nM

Compound: CCOC(=O)C1(C)C(=O)Nc2nc(-c3nc(OC)n(Cc4ccccc4F)n3)nc(N)c21 (centres unmarked) [Compound I-30]
EC50 [6]: ≥ 1000 nM

Compound: COc1cc(-c2ncc(F)c(NCCCCC(=O)O)n2)nn1Cc1ccccc1F [Compound I-32]
EC50 [6]: 101 to 1000 nM

Compound: Cn1c(-c2nc(N)c3c(n2)NC(=O)C3(C)C(N)=O)nn(Cc2ccccc2F)c1=O (centres unmarked) [Compound I-18]
EC50 [6]: ≥ 1000 nM
